Source: patent US6521623B1, “N,N'-disubstituted benzimidazolone derivatives with affinity at the serotonin and dopamine receptors” (Boehringer Ingelheim Pharma KG, priority 2000, dated 2003)

What was measured:
D4 human receptors = target: T1, D4 human receptors (Homo sapiens, UniProt P21917); assay: D4 Radioligand Receptor Binding Assay ([3H] YM-09151-2, CHO cell membranes); details: compound 10^−7 M, singlicate, [3H] YM-09151-2 0.15-0.25 nM
T1 construct: expressed in transfected cells; host or cells: CHO cells
T1 sequence (P21917 1-419): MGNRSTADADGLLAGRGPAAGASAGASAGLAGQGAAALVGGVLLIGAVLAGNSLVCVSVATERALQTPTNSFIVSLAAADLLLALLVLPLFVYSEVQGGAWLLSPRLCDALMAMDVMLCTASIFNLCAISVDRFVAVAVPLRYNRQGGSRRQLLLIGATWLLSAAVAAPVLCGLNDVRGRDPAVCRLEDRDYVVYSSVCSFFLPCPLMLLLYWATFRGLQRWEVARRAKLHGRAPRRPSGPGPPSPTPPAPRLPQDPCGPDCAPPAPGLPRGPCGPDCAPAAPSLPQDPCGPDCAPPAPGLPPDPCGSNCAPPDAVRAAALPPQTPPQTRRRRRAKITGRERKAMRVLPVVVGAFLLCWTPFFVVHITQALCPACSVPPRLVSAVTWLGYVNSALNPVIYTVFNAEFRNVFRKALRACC
Protocol: D4 Radioligand Receptor Binding Assay
Membranes from CHO cells expressing D4 human receptors, were suspended in incubation buffer.
Binding assays were performed in MultiProbe 204 pipetting system (Packard), according to a predetermined mapping, consistent with the software Screen. The compounds were tested in singlicate at one concentration (10^−7 M) in a total volume of 1000 μl (980 μl of diluted membranes, 10 μl DMSO or unlabelled ligand and 10 μl of [^3H] YM-09151-2 (0.15-0.25 nM). After incubation for 120 minutes at 27° C., the reaction was stopped by rapid filtration through Tomtec Cell Harvester (48 wells) using Filtermat B (presoaked in 0.1% PEI) filters. Filters were washed with ice-cold 50 mM Tris-HCl (pH 7.4) buffer (9×700 μl), dried, covered with MeltiLex B/HS (Wallac) scintillator sheets and heated in oven at 80° C. to 90° C. for about 10 minutes, transferred into plastic sample bags (Wallac), sealed, and put into 1024 Beta Plate scintillation counter (Wallac). Non-specific binding was determined in the presence of clozapine dissolved in DMSO to a final concentration of 10^−5 M.
(§1) The specific radioligand binding to the receptor was defined by the difference between total binding and non-specific binding, determined in the presence of an excess of unlabelled ligand. Results were expressed as percentage of control specific binding obtained in the presence of the compounds.

5-HT1A = target: T2, 5-HT1A (Homo sapiens, UniProt P08908); assay: 5HT1A Radioligand Receptor Binding Assay ([3H]-8-OH-DPAT, CHO cell membranes); parameters: expressed in transfected cells; host or cells: CHO cells; details: CHO membranes, human 5-HT1A; for 5-HT1A Receptor Binding Assay % inhibition (10^−7 M) / inhibition at 0.1 µM: compound 10^−7 M, singlicate, [3H]-8-OH-DPAT 0.6-0.7 nM; for IC50: [3H]-8-OH-DPAT, read-out: 5-HT1A Receptor Binding IC50
T2 sequence (P08908 1-422): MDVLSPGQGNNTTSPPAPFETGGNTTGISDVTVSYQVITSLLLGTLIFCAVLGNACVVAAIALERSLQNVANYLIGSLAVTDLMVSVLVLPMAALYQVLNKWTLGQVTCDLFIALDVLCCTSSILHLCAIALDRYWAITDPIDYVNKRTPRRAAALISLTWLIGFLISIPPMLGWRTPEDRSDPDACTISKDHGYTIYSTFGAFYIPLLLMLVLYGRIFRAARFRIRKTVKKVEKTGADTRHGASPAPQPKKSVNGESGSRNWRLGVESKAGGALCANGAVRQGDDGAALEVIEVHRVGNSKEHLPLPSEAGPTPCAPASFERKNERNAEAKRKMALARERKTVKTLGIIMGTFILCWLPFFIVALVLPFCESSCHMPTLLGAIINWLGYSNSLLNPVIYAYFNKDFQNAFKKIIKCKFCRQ
Protocol: 5HT1A Radioligand Receptor Binding Assay
Membranes from CHO cells, expressing 5-HT1A human receptors were suspended in incubation buffer.
Binding assays were performed in MultiProbe 204 pipetting system (Packard), according to a predetermined mapping, consistent with the software Screen. The compounds were tested in singlicate at one concentration (10^−7 M) in a total volume of 1000 μl. 980 μl of diluted membranes, 10 μl DMSO or unlabelled ligand and 10 μl of [^3H]-8-OH-DPAT (0.6-0.7 nM) were incubated for 60 minutes at 27° C. The reaction was stopped by rapid filtration through Tomtec Cell Harvester (48 wells) using Filtermat B (presoaked in 0.1% PEI) filters. Filters were washed with ice-cold 50 mM Tris-HCl (pH 7.4) buffer (9×700 μl), dried, covered with MeltiLex B/HS scintillator sheets (Wallac) and heated at 80° C. to 90° C. for about 10 minutes, transferred into plastic sample bags (Wallac), sealed, and put into 1024 Beta Plate scintillation counter (Wallac). Non-specific binding was determined in the presence of 5-HT (10^−5 M).
as §1, with “compounds. The affinity values (IC50) for the compounds were obtained by a nonlinear least squares regression analysis on the basis of a one binding site model.” for “compounds.”

Structure (SMILES)	D4 Receptor Binding Assay % inhibition (10^−7 M) (D4 human receptors) [%]	5-HT1A Receptor Binding Assay % inhibition (10^−7 M) (5-HT1A) [%]	inhibition at 0.1 µM (D4 human receptors) [%]	IC50 (5-HT1A) [nM]	inhibition at 0.1 µM (5-HT1A) [%]
COc1ccccc1N1CCN(CCCCn2c(=O)n(CCO)c3ccccc32)CC1 [Compound 74]	62	92			
CCNC(=O)OCCn1c(=O)n(CCCCN2CCN(c3ccccc3)CC2)c2ccccc21 [Compound 75]	54	67			
CCNC(=O)OCCn1c(=O)n(CCCCN2CCN(c3ccccn3)CC2)c2ccccc21 [Compound 78]	44	69			
CCNC(=O)OCCn1c(=O)n(CCCCN2CC=C(c3ccccc3)CC2)c2ccccc21 [Compound 84]	42	52			
CCNC(=O)OCCn1c(=O)n(CCCCN2CCN(c3ccc(Cl)c(Cl)c3)CC2)c2ccccc21 [Compound 85]	79	77			
CCNC(=O)OCCn1c(=O)n(CCCCN2CCN(c3ccccc3C)CC2)c2ccccc21 [Compound 95]	64	85			
CC(=O)NCCn1c(=O)n(CCCCN2CCN(c3ccccc3Cl)CC2)c2ccccc21 [Compound 118]	36	80			
O=c1n(CCN2CC=C(c3ccccc3)CC2)c2ccccc2n1CCN1CCCCC1 [Compound 150]	52	57			
COc1ccccc1N1CCN(CCn2c(=O)n(CCN3CCCCC3)c3ccccc32)CC1 [Compound 159]	50	85			
COCCn1c(=O)n(CCN2CC=C(c3ccccc3)CC2)c2ccccc21 [Compound 169]	58	85			
O=c1n(CCO)c2ccccc2n1CCN1CCN(c2ccccn2)CC1 [Compound 182]	45	62			
O=c1n(CCO)c2ccccc2n1CCN1CC=C(c2ccccc2)CC1 [Compound 188]	78	78			
COCCn1c(=O)n(C/C=C/CN2CCN(c3cccc(Cl)c3)CC2)c2ccccc21 [Compound 297]			34	7.9	96
O=c1n(C/C=C\CN2CCc3c([nH]c4ccccc34)C2)c2ccccc2n1CCN1CCCCC1 [Compound 316]	94	72			
O=c1n(C/C=C\CN2CC=C(c3ccccc3)CC2)c2ccccc2n1CCN1CCCCC1 [Compound 319]	70	94			
O=c1n(C/C=C/CN2CCN(c3ccccc3)CC2)c2ccccc2n1CCN1CCCCC1 [Compound 327]	74	78			
O=c1n(C/C=C/CN2CCN(c3ncccn3)CC2)c2ccccc2n1CCN1CCCCC1 [Compound 332]	85	78			
O=c1n(C/C=C/CN2CC=C(c3ccccc3)CC2)c2ccccc2n1CCN1CCCCC1 [Compound 336]	81	90			
O=c1n(C/C=C/CN2CCN(c3ncccn3)CC2)c2ccccc2n1CCN1CCOCC1 [Compound 349]	31	73			
O=c1n(C/C=C\CN2CCN(c3ccccc3)CC2)c2ccccc2n1CCO [Compound 361]	46	86			
O=c1n(C/C=C\CN2CCN(c3cccc(Cl)c3)CC2)c2ccccc2n1CCO [Compound 365]			63	15	

Next, values leading:

D4 Receptor Binding Assay % inhibition (10^−7 M) (D4 human receptors) [%]	5-HT1A Receptor Binding Assay % inhibition (10^−7 M) (5-HT1A) [%]	inhibition at 0.1 µM (D4 human receptors) [%]	IC50 (5-HT1A) [nM]	inhibition at 0.1 µM (5-HT1A) [%]	Structure (SMILES)
58	86				CCNC(=O)OCCn1c(=O)n(CCCCN2CCN(c3cccc(Cl)c3)CC2)c2ccccc21 [Compound 79]
55	94				CCNC(=O)OCCn1c(=O)n(CCCCN2CCN(c3cccc(C)c3C)CC2)c2ccccc21 [Compound 92]
62	94				CCNC(=O)OCCn1c(=O)n(CCCCN2CCN(c3ccccc3OC)CC2)c2ccccc21 [Compound 93]
72	88				CCNC(=O)OCCn1c(=O)n(CCCCN2CCN(c3cccc(C)c3)CC2)c2ccccc21 [Compound 94]
72	92				CCNC(=O)OCCn1c(=O)n(CCCCN2CCN(c3ccccc3Cl)CC2)c2ccccc21 [Compound 96]
58	55				CC(=O)NCCn1c(=O)n(CCCCN2CCN(c3ccc(Cl)c(Cl)c3)CC2)c2ccccc21 [Compound 107]
42	85				O=c1n(CCN2CCCCC2)c2ccccc2n1CCN1CCN(c2cccc(Cl)c2)CC1 [Compound 145]
35	88				O=c1n(CCN2CCCCC2)c2ccccc2n1CCN1CCN(c2cccc(C(F)(F)F)c2)CC1 [Compound 149]
99	54				O=c1n(CCO)c2ccccc2n1CCN1CCN(c2ccc(Cl)c(Cl)c2)CC1 [Compound 189]
43	77				COc1ccccc1N1CCN(CCn2c(=O)n(CCO)c3ccccc32)CC1 [Compound 197]
44	92				CCNC(=O)OCCn1c(=O)n(CCN2CCN(c3ccccc3OC)CC2)c2ccccc21 [Compound 216]
		42	8.8	92	O=c1n(C/C=C\CN2CCN(c3cccc(Cl)c3)CC2)c2ccccc2n1CCN1CCOCC1 [Compound 263]
92	100				O=c1n(C/C=C/CN2CCN(c3cccc(Cl)c3)CC2)c2ccccc2n1CCN1CCCCC1 [Compound 331]
36	77				O=c1n(C/C=C\CN2CCN(c3ccccn3)CC2)c2ccccc2n1CCO [Compound 364]
